Results from US9549935B2, “Methods and compositions for treating migraines using noribogaine” (DemeRx, Inc., priority 2014, dated 2017).

Tests used:
[1] = Plasma noribogaine pharmacokinetics after ascending single oral doses in healthy volunteers; type: in vivo, human; settings: for mean AUC/24 hr / mean AUC/24: fasting, serum; for CL/F: fasted healthy volunteers, mean (SD), n = 6
Description: Thirty-six healthy, drug-free male volunteers, aged between 18-55 years, were enrolled in and completed the study. This was an ascending single-dose, placebo-controlled, randomized double blind, parallel group study. Mean (SD) age was 22.0 (3.3) years, mean (SD) height was 1.82 (0.08) m, and mean (SD) weight was 78.0 (9.2) kg. Twenty-six subjects were Caucasian, 3 were Asian, 1 Maori, 1 Pacific Islander, and 5 Other. The protocol for this study was approved by the Lower South Regional Ethics Committee (LRS/12/06/015), and the study was registered with the Australian New Zealand Clinical Trial Registry (ACTRN12612000821897). All subjects provided signed informed consent prior to enrolment, and were assessed as suitable to participate based on review of medical history, physical examination, safety laboratory tests, vital signs and ECG.
Within each dose level, 6 participants were randomized to receive noribogaine and 3 to receive placebo, based on a computer-generated random code. Dosing began with the lowest noribogaine dose, and subsequent cohorts received the next highest dose after the safety, tolerability, and blinded pharmacokinetics of the completed cohort were reviewed and dose-escalation approved by an independent Data Safety Monitoring Board. Blinded study drug was administered as a capsule with 240 ml of water after an overnight fast of at least 10 hours. […] Participants were confined to the study site from 12 hours prior to drug administration, until 72 hours post-dose, and there were subsequent outpatient assessments until 216 hours post-dose.
Blood was obtained for pharmacokinetic assessments pre-dose and then at 0.25, 0.5, 0.75, 1.0, 1.25, 1.5, 2, 2.5, 3, 3.5, 4, 4.5, 5, 5.5, 6, 7, 8, 10, 12, 14, 18, 24, 30, 36, 48, 60, 72, 96, 120, 168 and 216 hours post-dose. Samples were centrifuged and plasma stored at −70° C. until analyzed. Block 24 hour urine collections were obtained following study drug administration for the 30 and 60 mg cohorts. Aliquots were frozen at −20° C. until analyzed.
Plasma noribogaine concentrations were determined in the 3 mg and 10 mg dose groups using a validated, sensitive LCMSMS method. Sample preparation involved double extraction of basified plasma samples with tert-butyl methyl ether, drying the samples under a stream of nitrogen and reconstitution of sample with acetonitrile:B.P. water (5:95, v/v) containing 0.1% (v/v) formic acid. The compounds were separated by a 150×2.0 mm Luna 5 μm C18 column and detected with a triple-quadrupole API 4000 or 5000 mass spectrometer using electrospray ionization in positive mode and multiple reaction monitoring. Noribogaine-d4 was used as the internal standard. The precursor-product ion transition values for noribogaine were m/z 297.6→122.3, and for the internal standard noribogaine-d4 m/z 301.1→122.2. Analyst® software was used for data acquisition and processing. The ratio of the peak area of noribogaine to the internal standard noribogaine-d4 was used for calibration and measurement of the unknown concentration of noribogaine. The lower limit of quantification (LLOQ) was 0.025 ng/ml noribogaine. The calibration curve was between 0.025 and 25.600 ng/ml noribogaine. Mobile phase A was acetonitrile:B.P. water (5:95, v/v) containing 0.1% (v/v) formic acid, and mobile phase B was acetonitrile:B.P. water (95:5, v/v) containing 0.1% (v/v) formic acid. Total run time was 6 minutes. Binary flow: Initial concentration was 8% mobile phase B; hold at 8% mobile phase B for 0.5 minutes and linear rise to 90% mobile phase B over 1.5 minutes; hold at 90% mobile phase B for 1 minute and then drop back to 8% mobile phase B over 0.01 minute. Equilibrate system for 3 minutes. Total run time was 6 minutes. Within- and between-day assay precision was <9%, and within- and between-day assay accuracy was <9%.
Plasma noribogaine concentrations were determined in the 30 mg and 60 mg dose groups using a validated, sensitive LCMSMS method. […]

[2] = Time to resumption of opioid substitution treatment (OST) in opioid-dependent patients; type: in vivo, human
[3] = Cold pressor test (analgesic effect) in healthy volunteers; type: in vivo, human; settings: 3-60 mg single oral doses vs placebo, 1° C. water
Description: Analgesic effect was assessed based on duration of hand immersion in ice water and on visual analog scale (VAS) pain scores upon hand removal from the water bath.
Safety and tolerability of noribogaine were tested in the group of volunteers from Example 1. Cold pressor testing was conducted in 1° C. water according to the method of Mitchell et al. (J Pain 5:233-237, 2004) pre-dose, 6, 24, 48, 72 and 216 hours post-dosing. Safety evaluations included clinical monitoring, recording of adverse events (AEs), safety laboratory tests, vital signs, ECG telemetry from −2 h to 6 h after dosing, and 12-lead electrocardiograms (ECGs) up to 216 hours post-dosing.

[4] = Opiate withdrawal scales (COWS, SOWS, OOWS) in opioid-dependent patients; type: in vivo, human; settings: single 120 mg dose, first six hours following dosing
Description: Patients were evaluated based on the Clinical Opiate Withdrawal Scale (COWS), Subjective Opiate Withdrawal Scale (SOWS), and Objective Opiate Withdrawal Scale (OOWS) scoring systems over the period of time between administration of noribogaine (or placebo) until resumption of OST. These scales are outlined in Guidelines for the Psychosocially Assisted Pharmacological Treatment of Opioid Dependence, World Health Organization, Geneva (2009), Annex 10, which is incorporated herein by reference in its entirety. The scales measure the intensity of withdrawal symptoms, based on clinical, subjective, and objective indicia.

[5] = Serum noribogaine pharmacokinetics in opioid-dependent patients (Phase IB); settings: 60, 120, 180 mg cohorts
[6] = QT interval evaluation in opioid-dependent patients; type: in vivo, human; settings: 60, 120, 180 mg, first 24 hours post administration
Description: Patients' QT intervals were evaluated at regular time points throughout the study.

CC[C@H]1CC2C[C@H]3c4[nH]c5ccc(O)cc5c4CCN(C2)C13 [Noribogaine, noribogaine]
Dose-proportionality of Cmax and AUC ([1]; 3-60 mg single oral doses, healthy volunteers): increased linearly with dose
time of peak concentrations after oral dosing ([1]; across 3-60 mg dose groups, healthy volunteers): 2 to 3 h
Mean half-life estimates ([1]; across dose groups (3-60 mg), healthy volunteers): 28 to 50 h
mean AUC/24 hr ([1]; single dose of 3 mg free base): 3.1 ng/mL
mean AUC/24 hr ([1]; single dose of 10 mg free base): 10.6 ng/mL
mean AUC/24 ([1]; single dose of 30 mg free base): 29.2 ng/mL
mean AUC/24 ([1]; single dose of 60 mg free base): 61 ng/mL
CL/F ([1]; single oral 3 mg dose): 41.4 (7.0) L/h
CL/F ([1]; single oral 10 mg dose): 42.3 (12.0) L/h
CL/F ([1]; single oral 30 mg dose): 46.9 (16.4) L/h
CL/F ([1]; single oral 60 mg dose): 34.0 (11.4) L/h
average time to resumption of opioids (OST) ([2]; single 120 mg dose): greater than 20 hours
average time to resumption of opioids (OST) ([2]; single 180 mg dose): still longer than untreated patients (7 hours, not shown) or those administered 60 mg noribogaine
analgesic effect in the cold pressor test (duration of hand immersion, VAS pain scores) [3]: no analgesic effect
withdrawal symptoms (COWS, OOWS, SOWS scores) [4]: fewer withdrawal symptoms than the other patients
dose dependence of maximum serum concentration (Cmax) [5]: increased in a dose-dependent manner
QT interval prolongation (ΔQTcl) [6]: dose-dependent increase in QT interval prolongation
